Assay results reported in US11589575B2, “Injectable preserving medium for preserving cells from placental blood, from bone marrow and from peripheral blood” (ETABLISSEMENT FRANCAIS DU SANG, priority 2015, dated 2023).
“Also recorded” adds a separate entry of the source.

Test system: placental blood CD34+ cells amplified ex vivo
Experiment: Preservation at +4° C. of ex vivo amplified placental blood CD34+ cells (TNC viability and clonogenic CFC/CFU yield)
Type: cell-based, human
Conditions: for preserving of the functionality (clonogenicity) of amplified cells: cells stored at +4° C.
Experimental: The cells, after ex vivo expansion, are more fragile than the original CD34+ cells, and the maintaining thereof is most critical at +4° C. (Duchez et al, 2013, supra).
Throughout all the studies leading to the formulation of the biological preserving medium, the assays were conducted on placental blood CD34+ cells derived from a bank with storage at −196° C. Each assay was performed on one 1 or more samples.
The placental blood CD34+ cells were isolated with an immunomagnetic system, then frozen and banked at −196° C.
After thawing, the placental blood CD34+ cells (20000/ml) were placed in culture in HP01 medium in the presence of SCF (Stem Cell Factor) 100 ng/ml, Flt3 (FMS-like tyrosine kinase-3) 100 ng/ml, G-CSF (Granulocyte Colony Stimulating Factor) 10 ng/ml, and thrombopoietin (TPO) 20 ng/ml at 37° C., 5% CO2 and 85% humidity. At mid-culture, the addition was made of HP01 culture medium with the cytokines (1/5 dilution) and culture continued up to 9 to 12 days (generally 10 days).
After culture, 2.5 ml of cell suspension were transferred to 2.5 ml gas-impermeable polypropylene tubes and centrifuged at 430 g for 10 minutes at 18° C. The supernatant was fully removed (with about 50 μl of supernatant remaining on the cell residue). Then, 2.45 ml of preserving medium to be assayed (at ambient temperature) were added to the tube and the tube sealed with the stopper; the cells being replaced in suspension with successive upturning movements. The samples were left at ambient temperature for 1 to 3 hours. Finally, the tubes were placed flat at +4° C. for times generally of 48 h to 72 h. Assays were also conducted in gas-permeable PVC pouches for comparative studies and in gas-impermeable EVA pouches.
Analyses were performed on the amplified cells: counting and viability of TNCs (Total Nucleated Cells), clonogenic assays, sometimes with counting and viability of CD34+ cells. After the period at +4° C. for the defined times (48 h and 72 h), the cell samples were assayed: counting and viability of TNCs and clonogenic assays (at times also counting and viability of CD34+ cells).
The quantity of viable total nucleated cells remaining after storage at 4° C. was compared with the quantity of viable total nucleated cells at the end of culture, to obtain a recovery yield of viable cells. Similarly, the yield of CFCs (Colony Forming Cells) was calculated. The values obtained were used to evaluate the advantage of one or more compounds in the formulation and to identify the optimal concentration of these compounds. The values were compared with those obtained with the HP02 preserving medium (Duchez et al, 2013, supra).

Structure (SMILES)	preserving of the functionality (clonogenicity) of amplified cells	action throughout the assays on preservation of amplified cells (readout not further specified) (stored at +4° C.)
CC1=C(/C=C/C(C)=C/C=C/C(C)=C/CO)C(C)(C)CCC1 [vitamin A, Retinol]	lesser action	–
O=C1O[C@H]([C@@H](O)CO)C(O)=C1O [vitamin C, Ascorbic acid]	lesser action	–
Cc1c(C)c2c(c(C)c1O)CC[C@@](C)(CCC[C@H](C)CCC[C@H](C)CCCC(C)C)O2 [vitamin E, Alpha-tocopherol]	the greatest action; also recorded: the most important action	effect close to or identical to the effect of Cernevit®
